Consider one compound from patent publication US20140154389A1, “PRODUCTION OF CHEESE WITH S. THERMOPHILUS” (DuPont Nutrition BioSciences ApS, priority 2011, published 2014).

The test system of the test is urease enzyme of ur(+) S. thermophilus. The test can be described thus: Floating curd experiment in test tubes (Example 3). The arrangement: species or system Streptococcus thermophilus. As to conditions: milk fermented at 35° C. to pH 4.65, sample heated at about 66° C. for 2 x 10 minutes; flurofamide added to the blend of Lactococci and ur(+) S. thermophilus. As to the method:
Four experiments were conducted in which milk was treated with various bacteria. In experiment 1, only Lactococci bacteria were added. In experiment 2, a blend of Lactococci bacteria and ur(+) S. thermophilus bacteria were added. In experiment 3, a blend of Lactococci bacteria, ur(+) S. thermophilus bacteria, and the urease inhibitor flurofamide were added. In experiment 4, only ur(+) S. thermophilus bacteria were added.
In each experiment, the milk was fermented with the bacteria at 35° C. until the cheese reached a pH of 4.65. A sample of the cheese was placed into a test tube, which was heated at about 66° C. for about 10 minutes. After 10 minutes of heating, a small pipette or thin wire was used to agitate the sample. The samples were held at about 66° C. for another ten minutes, at which time the photograph of the test tubes depicted in FIG. 3, was taken.
Test tube 4 is a positive control that contains ur(+) S. thermophilus, which has urease enzymes that can hydrolyze urea in milk.

As to `NP(N)(=O)NC(=O)c1ccc(F)cc1` [flurofamide], the “floating curd in test tube” value is given as “no floating curd”.
